SMILES strings stand for the structures.

In assay [1] the test system is Panc-1 cells. Description: Time lapse microscope images of pancreatic cancer cells after drug. Format: cell-based, human. To be noted: 10 μM BCN057. Here is the method:
FIG. 2A is a group of images showing pancreatic cancer cell growth after treatment with 10 μM BCN057 at time 0, 15, 30, 60, 120 and 240 minutes.
Further, these doses span the concentrations found in plasma during efficacy studies in rodents. Subsequently, microscope images appeared to show cell blebbing and fragmentation shortly after application of BCN057 indicating possible apoptosis. […] Blebbing and cell fragmentation was noted within 20 min of incubation with drug (as shown with the arrows). Cell fragmentation was seen between 20-30 minutes after exposure to the drug.

The test system of assay [2] is c-Jun in non-transformed HEK298 epithelial cells. Description: c-Jun T 91/93 phosphorylation in non-transformed cells. In kind it is cell-based. To be noted: data not shown. Here is the method: Phosphorylation at T 91/93 in c-Jun was measured as a function of total c-Jun. Significant phosphorylation at T 91/93 was observed which has been reported to be associated with the activation of c-Jun's pro-apoptotic activity.

The subject of assay [3] is PTEN. In words: Western blot of PTEN protein expression in Panc-1 cells. In kind it is cell-based, human. Particulars: 10 μM, 20 minutes to 24 hours. Here is the method: Western Blot: Cells were harvested and lysed in cell lysis buffer on ice for 15 minutes and the lysate was centrifuged at 13,000 rpm at 4° C. for 10 minutes. The supernatant was transferred into a new tube for BCA protein quantification assay (Thermo Fisher Scientific) and the samples were normalized. 3× loading buffer (Cell Signaling) was added the protein sample and boiled for 5 minutes. The samples were used for SDS-PAGE analysis and transferred to nitrocellulose membrane. The membrane was blocked with 5% BSA at room temperature for 1 hour and incubated with primary antibody at 4° C. overnight. The membrane was washed with 1×TBST 5 minutes for 3 times and incubated with horseradish peroxidase-conjugated secondary antibody for 1 hour at room temperature. The protein was visualized by SuperSignal West Pico Stable Peroxide Solution (Thermo Fisher Scientific). The blot was visualized by chemiluminescence using a BioRad Versadoc Imaging System. In KRAS dependent tumors, c-Jun acts to suppress Phosphatase and tensin homolog (PTEN) expression at the promoter level and that suppression of PTEN expression is essential for anti-apoptosis and cellular transformation by oncogenic RAS. Thus, we investigated PTEN expression levels in response to BCN057. […] FIG. 4A is a western blot of Phospho-c-Jun (T-91/93). […] Phosphorylation of c-Jun at T-91/93 is known to induce apoptosis. […]
(A western blot detects proteins with antibodies after separation by electrophoresis.)

For assay [4], the system named is Lgr5+ ISCs. In words: Lgr5+ intestinal stem cells in 5FU treated Lgr5-Cre-ERT-GFP mice. Format: in vivo. To be noted: 5FU treated mice receiving BCN057. Here is the method: 5FU is a component of FOLFIRINOX and the active agent metabolized from Capecitabine (Xeloda®). To, examine the effect of BCN057 against chemo induced toxicity in Lgr5+ ISCs, Lgr5-Cre-ERT-GFP mice were pre-treated with 5FU as reported and then subjected to BCN057 treatment.
Stains of GI crypts with green=LGR5+ stem cells. Mice were treated with 5FU and 5FU+BCN057 for 5 days. BCN057 was administered for two extra days after 5FU treatment. Small intestine samples were harvested and stained for LGR5 at 3 days after the last 5FU injection. FIG. 5D is a histogram of the quantitation by % of LGR5+ cells remaining in […] sections at the crypt base showing prevention of 5-FU induced apoptosis in LGR5+ stem cells in GI.

In assay [5] the test system is PD-1 expression on human T-lymphocytes. Description: Western blot of PD-1 on T-lymphocytes co-cultured with Panc-1 cells. Particulars: co-culture with Panc-1, 10 μM, sustained over 12 hours. Format: cell-based. Here is the method:
Cell lines and cell culture: Panc-1 cells were cultured in DMEM medium supplemented with 10% Fetal Bovine Serum and maintained at 37° C.5% CO2. Human Peripheral Blood Pan-T Cells were cultured in serum free T cells expansion media with 10 ng/ml of rhIL-2, T-cell activator and expanded as per the manufacturer instructions. Panc-1 cells and T-Cells were grown and expanded separately in T75 flasks. For co-culture experiments with Panc-1 cell, 2.5 million T-cells per well were plated in the well using a 6 well plate. 2.5 million Panc-1 Cells were plated in the thinsert which was placed into the well of the 6 well plate in order to have the cells physically separated but share media. The cells were incubated for 24 hours at 37° C., 5% CO2. At 24 hours the media was replaced with media containing vehicle, or 10 uM BCN057 and were incubated for the following timepoints: 1 hr, 6 hr, 12 hr, 24 hrs. The Panc-1 cells were removed by gently scraping the cells from the thinsert.
Western Blot: Cells were harvested and lysed in cell lysis buffer on ice for 15 minutes and the lysate was centrifuged at 13,000 rpm at 4° C. for 10 minutes. The supernatant was transferred into a new tube for BCA protein quantification assay (Thermo Fisher Scientific) and the samples were normalized. 3× loading buffer (Cell Signaling) was added the protein sample and boiled for 5 minutes. The samples were used for SDS-PAGE analysis and transferred to nitrocellulose membrane. The membrane was blocked with 5% BSA at room temperature for 1 hour and incubated with primary antibody at 4° C. overnight. The membrane was washed with 1×TBST 5 minutes for 3 times and incubated with horseradish peroxidase-conjugated secondary antibody for 1 hour at room temperature. The protein was visualized by SuperSignal West Pico Stable Peroxide Solution (Thermo Fisher Scientific). The blot was visualized by chemiluminescence using a BioRad Versadoc Imaging System.
BCN057 and Immune Checkpoint blockade: An emerging method of treatment for many forms of cancer, including PDAC, is immune checkpoint inhibitors. […]

Assay [6] concerns KRASG13R mutant MC38 tumor cell line. Particulars: cited from earlier work.

Consider `COc1ccc2cc(-c3nc4ccc(C)cn4c3NCc3ccco3)c(=O)[nH]c2c1` [BCN057, 3-[(Furan-2-ylmethyl)-amino]-2-(7-methoxy-2-oxo-1,2-dihydro-quinolin-3-yl)-6-methyl-imidazo[1,2-a]pyridin-1-ium], for which, in assay [1], the “Time at which cell fragmentation was seen after exposure” value lay within 20 to 30 min; the “Time to blebbing and cell fragmentation” value is recorded as no more than 20 min. Besides, the “c-Jun pro-apoptotic activity (T 91/93 phosphorylation)” value in assay [2] was “not found to be induced”. The PTEN protein expression entry in assay [3] is “increased expression up to 1 hr of PTEN protein”. Besides, the “Lgr5+ve ISCs in jejunal section” value in assay [4] is on record as “significant presence of Lgr5+ve ISCs”. In addition, in assay [5], the “PD-1 expression on human T-lymphocytes” value was “decreased significantly within the first hour”. Besides, the Tolerated radiation dose result in assay [6] (BCN057 with radiation treatment versus radiation alone) was “able to tolerate much higher radiation doses”. In addition, the Tumor burden result in assay [6] (mice receiving BCN057 versus control) is given as “significantly lower tumor burden than control”.
